Data published in patent US11807625B2, “Capsid inhibitors for the prevention of HIV” (Gilead Sciences, Inc., priority 2019, dated 2023).
Like-named read-outs stand apart in the source and are kept apart here.

Test: PK of compound of Formula (Ia) after single subcutaneous dose of solution formulations in beagle dogs
Assay type: in vivo
Conditions: male, beagle, dog, plasma, sc; for AUC(0-t): 6 mg/kg, mean ± SD, SC 6 mg/kg, solution V, 300 mg/mL
Description: Formulations containing the compound of Formula (Ia), or a pharmaceutically acceptable salt thereof, were prepared as solutions and optionally administered subcutaneously or intramuscularly to rats, rabbits, and/or dogs.
(§1) A solution of about 400 mg/mL of the compound of Formula (Ia) having 17.00 w/w % water, 36.40 w/w % PEG 300, 35.20 w/w % of a sodium salt of a compound of Formula (Ia), 5.00 w/w % ethanol, and 6.40 w/w % poloxamer 188 was prepared. The solution was administered subcutaneously to male beagle dogs at a dose level of about 12 mg/kg and male Wistar Han rats at a dose level of about 50 mg/kg. The pharmacokinetic profiles were determined, and the results for dogs are summarized in Table and Table, while the results for rats are summarized in Table and Table below.
as §1, with “500” for “400”, “14.06” for “17.00”, “30.12” for “36.40”
A solution of about 300 mg/mL of the compound of Formula (Ia) having 23.33 w/w % water, 48.99 w/w % PEG 300, 26.47 w/w % of a sodium salt of a compound of Formula (Ia), and 1.21 w/w % poloxamer 188 was prepared. The solution was administered subcutaneously to male beagle dogs at a dose level of about 6 mg/kg and male Wistar Han rats at a dose level of about 50 mg/kg. The pharmacokinetic profiles were determined, and the results for dogs are summarized in Table and Table, while the results for rats are summarized in Table and Table below.
as §1, with “18.80” for “17.00”, “40.25” for “36.40”, “34.38” for “35.20”, “1.57” for “6.40”
as §1, with “500” for “400”, “16.29” for “17.00”, “34.88” for “36.40”, “41.92” for “35.20”, “1.91” for “6.40”
as §1, with “20.90” for “17.00”, “44.72” for “36.40”, “and 34.38” for “35.20”, “(Ia)” for “(Ia), 5.00 w/w % ethanol, and 6.40 w/w % poloxamer 188”
A solution of about 400 mg/mL of the compound of Formula (Ia) having 19.90 w/w % water, 42.59 w/w % PEG 300, 34.38 w/w % of a sodium salt of a compound of Formula (Ia), and 3.13 w/w % poloxamer 188 was prepared. The solution was administered subcutaneously to male beagle dogs at a dose level of about 12 mg/kg and male Wistar Han rats at a dose level of about 50 mg/kg. […]

[1] = 12 mg/kg, mean, n = 3 dogs, SC 12 mg/kg, solution T, 400 mg/mL
[2] = 12 mg/kg, mean, n = 3 dogs, SC 12 mg/kg, solution U, 500 mg/mL
[3] = 12 mg/kg, individual dogs, SC 12 mg/kg, solution T, 400 mg/mL
[4] = 12 mg/kg, individual dogs, SC 12 mg/kg, solution U, 500 mg/mL
[5] = 12 mg/kg, beagle dogs, SC 12 mg/kg, 400 mg/mL solution AA (6.25% poloxamer 188), Mean n = 3
[6] = 12 mg/kg, beagle dogs, SC 12 mg/kg, 400 mg/mL solution AA (6.25% poloxamer 188), animals #1-#3
[7] = 12 mg/kg, beagle dogs, SC 12 mg/kg, 400 mg/mL solution W (5.00% ethanol, 1.57% poloxamer 188), Mean n = 3
[8] = 12 mg/kg, beagle dogs, SC 12 mg/kg, 400 mg/mL solution W (5.00% ethanol, 1.57% poloxamer 188), animals #1-#3

AUC(0-t) (n = 3 dogs, read-out: AUC0-2016 h): 107 ± 12 µM·h | AUC(0-t) (n = 3 dogs, read-out: AUC0-2253 h): 109 ± 12 µM·h | AUC(0-t) (n = 3 dogs, read-out: AUC0-2688 h): 110 ± 12 µM·h | AUC(0-t) (n = 3 dogs, read-out: AUC0-3024 h): 111 ± 13 µM·h | AUC(0-t) (n = 3 dogs, read-out: AUC0-4032 h): 112 ± 13 µM·h | AUC(0-t) (n = 3 dogs, read-out: AUC0-4368 h): 112 ± 13 µM·h | concentration at 1 h [1]: 6.07 nM | concentration at 1 h [2]: 5.59 nM | concentration at 3 h [1]: 18.1 nM | concentration at 3 h [2]: 22 nM | concentration at 8 h [3]: 83.9 nM | concentration at 8 h [1]: 72.9 nM | concentration at 8 h [2]: 61.2 nM | concentration at 24 h [3]: 233 nM | concentration at 24 h [1]: 224 nM | concentration at 24 h [2]: 134 nM | concentration at 48 h [4]: 72.8 nM | concentration at 48 h [1]: 241 nM | concentration at 48 h [2]: 87.2 nM | concentration at 72 h [4]: 49.4 nM | concentration at 72 h [1]: 223 nM | concentration at 72 h [2]: 58.6 nM | concentration at 96 h [4]: 49 nM | concentration at 96 h [1]: 232 nM | concentration at 96 h [2]: 52.4 nM | concentration at 168 h [1]: 221 nM | concentration at 168 h [2]: 97.5 nM | concentration at 336 h [3]: 179 nM | concentration at 336 h [4]: 114 nM | concentration at 336 h [1]: 261 nM | concentration at 336 h [2]: 152 nM | concentration at 504 h [3]: 286 nM | concentration at 504 h [4]: 151 nM | concentration at 504 h [1]: 238 nM | concentration at 504 h [2]: 149 nM | concentration at 672 h [3]: 150 nM | concentration at 672 h [1]: 116 nM | concentration at 672 h [2]: 81.9 nM | concentration at 840 h [1]: 90.8 nM | concentration at 840 h [2]: 72.6 nM | concentration at 1008 h [3]: 75.5 nM | concentration at 1008 h [1]: 73.6 nM | concentration at 1008 h [2]: 58.3 nM | concentration at 1344 h [3]: 42.5 nM | concentration at 1344 h [4]: 43.3 nM | concentration at 1344 h [1]: 36.2 nM | concentration at 1344 h [2]: 34.8 nM | concentration at 1680 h [3]: 19.9 nM | concentration at 1680 h [1]: 23.9 nM | concentration at 1680 h [2]: 21.3 nM | concentration at 2016 h [1]: 11.8 nM | concentration at 2016 h [2]: 10.3 nM | concentration at 2352 h [3]: 4.8 nM | concentration at 2352 h [1]: 6 nM | concentration at 2352 h [2]: 7.5 nM | concentration at 1 h [5]: 4 nM | concentration at 3 h [5]: 13.8 nM | concentration at 8 h [5]: 42.3 nM | concentration at 24 h [5]: 134 nM | concentration at 24 h [6]: 118 nM | concentration at 48 h [5]: 148 nM | concentration at 48 h [6]: 102 nM | concentration at 72 h [5]: 135 nM | concentration at 96 h [5]: 180 nM | concentration at 96 h [6]: 140 nM | concentration at 168 h [5]: 101 nM | concentration at 168 h [6]: 106 nM | concentration at 336 h [5]: 185 nM | concentration at 336 h [6]: 204 nM | concentration at 504 h [5]: 182 nM | concentration at 672 h [5]: 183 nM | concentration at 672 h [6]: 157 nM | concentration at 840 h [5]: 109 nM | concentration at 840 h [6]: 103 nM | concentration at 1008 h [5]: 85.4 nM | concentration at 1008 h [6]: 77.6 nM | concentration at 1334 h [5]: 47.6 nM | concentration at 1334 h [6]: 35.8 nM | concentration at 1680 h [5]: 28 nM | concentration at 1680 h [6]: 24 nM | concentration at 2016 h [5]: 15.4 nM | concentration at 2016 h [6]: 10.2 nM | concentration at 2352 h [5]: 10.5 nM | concentration at 2688 h (12 mg/kg, beagle dogs, SC 12 mg/kg, 400 mg/mL solution AA (6.25% poloxamer 188), 2688 h, Mean n = 3): 5.47 nM | concentration at 3024 h (12 mg/kg, beagle dogs, SC 12 mg/kg, 400 mg/mL solution AA (6.25% poloxamer 188), 3024 h, Mean n = 3): 3.54 nM | concentration at 3360 h (12 mg/kg, beagle dogs, SC 12 mg/kg, 400 mg/mL solution AA (6.25% poloxamer 188), 3360 h, Mean n = 3): 1.97 nM | concentration at 3696 h (12 mg/kg, beagle dogs, SC 12 mg/kg, 400 mg/mL solution AA (6.25% poloxamer 188), Mean): 1.56 nM | concentration at 3696 h [6]: 1.63 nM | concentration at 3 h [7]: 3.84 nM | concentration at 3 h [8]: 3.45 nM | concentration at 8 h [7]: 18 nM | concentration at 24 h [7]: 37.8 nM | concentration at 24 h [8]: 35.4 nM | concentration at 48 h [7]: 48.2 nM | concentration at 72 h [7]: 48.6 nM
Structure (SMILES): CC(C)(C#Cc1ccc(-c2ccc(Cl)c3c(NS(C)(=O)=O)nn(CC(F)(F)F)c23)c([C@H](Cc2cc(F)cc(F)c2)NC(=O)Cn2nc(C(F)(F)F)c3c2C(F)(F)[C@@H]2C[C@H]32)n1)S(C)(=O)=O [compound of Formula (Ia)]
